As usually defined, the IC50 is the concentration needed to halve the response being measured. A lower IC50 goes with inhibition by little substance.

The source of these data is patent publication US12344597B2, “Alkoxy-substituted pyridinyl derivatives as LPA1 receptor antagonists and their use in the treatment of fibrosis” (IDORSIA PHARMACEUTICALS LTD, priority 2018, dated 2025).

In the assay the target is human LPA1 receptor (Homo sapiens (Human), UniProt Q92633). Put plainly: Beta-arrestin recruitment assay to determine IC50 values for human LPAR1. In kind it is cell-based. Conditions: antagonist mode, Tango EDG2-bla U2OS cells, LPA 18:1 500 nM final. An outline of the steps:
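Antagonist IC50 = concentration giving 50% inhibition of maximal LPA response. Read-out is beta-lactamase reporter activity after arrestin-protease recruitment in U2OS cells bearing LPA1-TEV-Gal4-VP16 construct; cells pre-incubated 20 h, 37 °C, 5% CO2.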
Background: Activated receptors often draw arrestin, which recruitment assays turn into a signal.

Sequence of human LPA1 receptor (Q92633 whole entry, the tested form may be a part): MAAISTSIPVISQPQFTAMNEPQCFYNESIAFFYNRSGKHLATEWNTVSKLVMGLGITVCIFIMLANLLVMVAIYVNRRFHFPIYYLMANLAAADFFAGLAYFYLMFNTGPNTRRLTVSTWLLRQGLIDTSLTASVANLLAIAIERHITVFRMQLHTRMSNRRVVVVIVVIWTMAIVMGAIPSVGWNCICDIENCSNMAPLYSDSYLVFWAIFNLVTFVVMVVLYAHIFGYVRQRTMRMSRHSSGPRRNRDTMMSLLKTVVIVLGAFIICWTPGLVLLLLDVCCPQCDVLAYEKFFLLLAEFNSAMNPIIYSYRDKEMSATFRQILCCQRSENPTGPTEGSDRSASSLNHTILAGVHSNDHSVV

Consider `COc1cc(Cl)cnc1NC(=O)C1(c2ccccc2C(C)C)CNC1` [Ex 70, N-(5-chloro-3-methoxypyridin-2-yl)-3-(2-isopropylphenyl)azetidine-3-carboxamide], for which the IC50 amounted to 866 nM. In turn, `COc1cc(Br)cnc1NC(=O)C1(c2ccccc2C(C)C)CNC1` [Ex 71, N-(5-bromo-3-methoxypyridin-2-yl)-3-(2-isopropylphenyl)azetidine-3-carboxamide] showed an IC50 of 564 nM. To `CC(C)c1ccccc1C1(C(=O)Nc2ncc(Cl)cc2OC(F)F)CNC1` [Ex 72, N-(5-chloro-3-(difluoromethoxy)pyridin-2-yl)-3-(2-isopropylphenyl)azetidine-3-carboxamide] belongs 15 nM; to `CC(C)c1ccccc1C1(C(=O)Nc2ncc(Br)cc2OC(F)F)CNC1` [Ex 73, N-(5-bromo-3-(difluoromethoxy)pyridin-2-yl)-3-(2-isopropylphenyl)azetidine-3-carboxamide], 10 nM; to `COc1cnc(NC(=O)C2(c3ccccc3C(C)C)CNC2)c(OC)c1` [Ex 75, N-(3,5-dimethoxypyridin-2-yl)-3-(2-isopropylphenyl)azetidine-3-carboxamide], 4380 nM. `O=C(Nc1ncc(Cl)cc1OC(F)F)C1(c2ccccc2C2CCCC2)CNC1` [Ex 76, N-(5-chloro-3-(difluoromethoxy)pyridin-2-yl)-3-(2-cyclopentylphenyl)azetidine-3-carboxamide]: the half-maximal inhibitory concentration (IC50) is 19 nM. The result for `CC(C)c1cccnc1C1(C(=O)Nc2ncc(Cl)cc2OC(F)F)CNC1` [Ex 77, N-(5-chloro-3-(difluoromethoxy)pyridin-2-yl)-3-(3-isopropylpyridin-2-yl)azetidine-3-carboxamide] reads 1030 nM; that for `COC(=O)C(C)(C)CCN1CC(C(=O)Nc2ncc(Cl)cc2OC(F)F)(c2ccccc2C(C)C)C1` [Ex 78-1, methyl 4-(3-((5-chloro-3-(difluoromethoxy)pyridin-2-yl)carbamoyl)-3-(2-isopropylphenyl)azetidin-1-yl)-2,2-dimethylbutanoate], 457 nM; that for `CC(C)c1ccccc1C1(C(=O)Nc2ncc(Cl)cc2OC(F)F)CN(CCC(C)(C)C(=O)O)C1` [Ex 78-2, 4-(3-((5-chloro-3-(difluoromethoxy)pyridin-2-yl)carbamoyl)-3-(2-isopropylphenyl)azetidin-1-yl)-2,2-dimethylbutanoic acid], 17 nM. To `CC(C)c1ccccc1C1(C(=O)Nc2ncc(Br)cc2OC(F)F)CN(CCC(C)(C)C(=O)O)C1` [Ex 78-3, 4-(3-((5-bromo-3-(difluoromethoxy)pyridin-2-yl)carbamoyl)-3-(2-isopropylphenyl)azetidin-1-yl)-2,2-dimethylbutanoic acid] belongs 13 nM. The result for `COC(=O)C(C)(C)CC(=O)N1CC(C(=O)Nc2ncc(Br)cc2OC(F)F)(c2ccccc2C(C)C)C1` [Ex 79-1, Methyl 4-(3-((5-bromo-3-(difluoromethoxy)pyridin-2-yl)carbamoyl)-3-(2-isopropylphenyl)azetidin-1-yl)-2,2-dimethyl-4-oxobutanoate] reads 65 nM. As for `CC(C)c1ccccc1C1(C(=O)Nc2ncc(Cl)cc2OC(F)F)CN(C(=O)CC(C)(C)C(=O)O)C1` [Ex 79-3, 4-(3-((5-chloro-3-(difluoromethoxy)pyridin-2-yl)carbamoyl)-3-(2-isopropylphenyl)azetidin-1-yl)-2,2-dimethyl-4-oxobutanoic acid], the concentration for half-maximal inhibition (IC50) was 17 nM. `COc1cc(Cl)cnc1NC(=O)C1(c2ccccc2C(C)C)CN(C(=O)CC(C)(C)C(=O)O)C1` [Ex 79-4, 4-(3-((5-chloro-3-methoxypyridin-2-yl)carbamoyl)-3-(2-isopropylphenyl)azetidin-1-yl)-2,2-dimethyl-4-oxobutanoic acid] gave a concentration for half-maximal inhibition (IC50) of 123 nM.

For `COc1cc(Br)cnc1NC(=O)C1(c2ccccc2C(C)C)CN(C(=O)CC(C)(C)C(=O)O)C1` [Ex 79-5, 4-(3-((5-bromo-3-methoxypyridin-2-yl)carbamoyl)-3-(2-isopropylphenyl)azetidin-1-yl)-2,2-dimethyl-4-oxobutanoic acid], half-maximal inhibition (IC50) required 104 nM. `Cc1cnc(NC(=O)C2(c3ccccc3C(C)C)CN(C(=O)CC(C)(C)C(=O)O)C2)c(OC(F)F)c1` [Ex 79-6, 4-(3-((3-(difluoromethoxy)-5-methylpyridin-2-yl)carbamoyl)-3-(2-isopropylphenyl)azetidin-1-yl)-2,2-dimethyl-4-oxobutanoic acid] returned an IC50 of 200 nM. To `Cc1cnc(NC(=O)C2(c3ccccc3C(C)C)CN(C(=O)CC3(C(=O)O)CCC3)C2)c(OC(F)F)c1` [Ex 79-7, 1-(2-(3-((3-(difluoromethoxy)-5-methylpyridin-2-yl)carbamoyl)-3-(2-isopropylphenyl)azetidin-1-yl)-2-oxoethyl)cyclobutane-1-carboxylic acid] belongs 61 nM; to `Cc1cnc(NC(=O)C2(c3ccccc3C(C)C)CN(S(=O)(=O)CCC(=O)OCc3ccccc3)C2)c(OC(F)F)c1` [Ex 80-1, benzyl 3-((3-((3-(difluoromethoxy)-5-methylpyridin-2-yl)carbamoyl)-3-(2-isopropylphenyl)azetidin-1-yl)sulfonyl)propanoate], 55 nM. The result for `Cc1cnc(NC(=O)C2(c3ccccc3C(C)C)CN(S(=O)(=O)CCC(=O)O)C2)c(OC(F)F)c1` [Ex 80-2, 3-((3-((3-(difluoromethoxy)-5-methylpyridin-2-yl)carbamoyl)-3-(2-isopropylphenyl)azetidin-1-yl)sulfonyl)propanoic acid] reads 110 nM. Compound `COc1cc(Cl)cnc1NC(=O)C1(c2ccccc2C(C)C)CN(S(N)(=O)=O)C1` [Ex 81-1, N-(5-chloro-3-methoxypyridin-2-yl)-3-(2-isopropylphenyl)-1-sulfamoylazetidine-3-carboxamide] displayed a concentration for half-maximal inhibition (IC50) of 15 nM. Compound `COc1cc(Br)cnc1NC(=O)C1(c2ccccc2C(C)C)CN(S(N)(=O)=O)C1` [Ex 81-2, N-(5-bromo-3-methoxypyridin-2-yl)-3-(2-isopropylphenyl)-1-sulfamoylazetidine-3-carboxamide] came in with a 50% inhibitory concentration (IC50) of 13 nM. To `CC(C)c1ccccc1C1(C(=O)Nc2ncc(Cl)cc2OC(F)F)CN(S(N)(=O)=O)C1` [Ex 81-3, N-(5-chloro-3-(difluoromethoxy)pyridin-2-yl)-3-(2-isopropylphenyl)-1-sulfamoylazetidine-3-carboxamide] belongs 2 nM; to `CC(C)c1ccccc1C1(C(=O)Nc2ncc(Br)cc2OC(F)F)CN(S(N)(=O)=O)C1` [Ex 81-4, N-(5-bromo-3-(difluoromethoxy)pyridin-2-yl)-3-(2-isopropylphenyl)-1-sulfamoylazetidine-3-carboxamide], 2 nM; to `COc1cnc(NC(=O)C2(c3ccccc3C(C)C)CN(S(N)(=O)=O)C2)c(OC)c1` [Ex 81-5, N-(3,5-dimethoxypyridin-2-yl)-3-(2-isopropylphenyl)-1-sulfamoylazetidine-3-carboxamide], 63 nM. To `CC(C)c1ccccc1C1(C(=O)Nc2ncc(Cl)cc2OC(F)F)CN(C(=O)NC2CC2)C1` [Ex 82-1, N3-(5-chloro-3-(difluoromethoxy)pyridin-2-yl)-N1-cyclopropyl-3-(2-isopropylphenyl)azetidine-1,3-dicarboxamide] belongs 3 nM; to `CC(C)c1ccccc1C1(C(=O)Nc2ncc(Br)cc2OC(F)F)CN(C(=O)NC2CC2)C1` [Ex 82-2, N3-(5-bromo-3-(difluoromethoxy)pyridin-2-yl)-N1-cyclopropyl-3-(2-isopropylphenyl)azetidine-1,3-dicarboxamide], 3 nM; to `COC(=O)COC(=O)N1CC(C(=O)Nc2ncc(C)cc2OC(F)F)(c2ccccc2C(C)C)C1` [Ex 83-1, 2-methoxy-2-oxoethyl 3-((3-(difluoromethoxy)-5-methylpyridin-2-yl)carbamoyl)-3-(2-isopropylphenyl)azetidine-1-carboxylate], 74 nM.

In the case of `Cc1cnc(NC(=O)C2(c3ccccc3C(C)C)CN(C(=O)OCC(=O)O)C2)c(OC(F)F)c1` [Ex 83-2, 2-((3-((3-(difluoromethoxy)-5-methylpyridin-2-yl)carbamoyl)-3-(2-isopropylphenyl)azetidine-1-carbonyl)oxy)acetic acid], the midpoint of inhibition, the IC50, lay at 88 nM. Take `Cc1cnc(NC(=O)C2(c3ccccc3C(C)C)CN(C3=NC(=O)CO3)C2)c(OC(F)F)c1` [Ex 84, N-(3-(difluoromethoxy)-5-methylpyridin-2-yl)-3-(2-isopropylphenyl)-1-(4-oxo-4,5-dihydrooxazol-2-yl)azetidine-3-carboxamide]: inhibition was half-maximal at 310 nM (IC50). The result for `COc1ncccc1NC(=O)C1(c2ccccc2)CNC1` [Ex 85, N-(2-methoxypyridin-3-yl)-3-phenylazetidine-3-carboxamide, reference compound] reads greater than 10000 nM. `COCCNS(=O)(=O)N1CC(C(=O)Nc2cccnc2OC)(c2ccccc2)C1` [Ex 86, 1-(N-(2-methoxyethyl)sulfamoyl)-N-(2-methoxypyridin-3-yl)-3-phenylazetidine-3-carboxamide, reference compound] yielded a 50% inhibitory concentration (IC50) greater than 10000 nM. Compound `NS(=O)(=O)N1CC(C(=O)Nc2ncc(Cl)cc2OC(F)F)(c2ccccc2C2CCCC2)C1` [Example 81-6, N-(5-chloro-3-(difluoromethoxy)pyridin-2-yl)-3-(2-cyclopentylphenyl)-1-sulfamoylazetidine-3-carboxamide] yielded a 50% inhibitory concentration (IC50) of 22 nM. To `CC(C)c1cccnc1C1(C(=O)Nc2ncc(Cl)cc2OC(F)F)CN(S(N)(=O)=O)C1` [Example 81-7, N-(5-chloro-3-(difluoromethoxy)pyridin-2-yl)-3-(3-isopropylpyridin-2-yl)-1-sulfamoylazetidine-3-carboxamide] belongs 5 nM; to “(R)-2-amino-5-(3-((2-(difluoromethoxy)-6-methylpyridin-3-yl)carbamoyl)-3-(2-isopropylphenyl)azetidin-1-yl)-5-oxopentanoic acid [Ex 49]”, 44 nM; to “Methyl 4-(3-((5-bromo-3-(difluoromethoxy)pyridin-2-yl)carbamoyl)-3-(2-isopropylphenyl)azetidin-1-yl)-2,2-dimethyl-4-oxobutanoate [Ex 79-2]”, 11 nM.
